Values quoted from earlier work as cited in US20060165789A1, “Lercanidipine modified release compositions” (Forest Laboratories, Inc., priority 2004, published 2006).

How the values were obtained:
[1] = test system: dihyropyridine subunit of the L-type calcium channel
[2] = pH 5
Caco2 cell = Caco2 cell apparatus
[3] = target: cytochrome P450 3A4 isoenzyme (Homo sapiens, UniProt P08684); settings: extensive presystemic first pass elimination in patients
[4] = for time of maximum concentration (Tmax): form (I) and form (II) compared

cytochrome P450 3A4 isoenzyme, sequence (P08684 whole entry): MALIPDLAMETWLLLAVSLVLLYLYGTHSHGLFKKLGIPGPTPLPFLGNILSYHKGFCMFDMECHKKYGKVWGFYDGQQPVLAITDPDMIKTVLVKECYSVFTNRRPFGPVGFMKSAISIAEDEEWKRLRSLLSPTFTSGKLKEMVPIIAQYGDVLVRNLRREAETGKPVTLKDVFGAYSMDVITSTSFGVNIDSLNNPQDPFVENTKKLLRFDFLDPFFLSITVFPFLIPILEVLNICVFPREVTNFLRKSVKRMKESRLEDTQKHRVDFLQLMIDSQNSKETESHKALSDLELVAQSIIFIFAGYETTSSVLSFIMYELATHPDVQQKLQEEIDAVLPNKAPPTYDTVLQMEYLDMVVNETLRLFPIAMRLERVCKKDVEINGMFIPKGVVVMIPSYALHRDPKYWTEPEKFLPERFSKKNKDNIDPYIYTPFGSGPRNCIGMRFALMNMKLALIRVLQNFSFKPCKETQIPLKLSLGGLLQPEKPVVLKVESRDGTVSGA

solubility in acidic medium [2]	Papp (Caco2 cell)	increase of amount of lercanidipine absorbed with food (in vivo)	time of peak plasma level following dosage (oral administration)	time of maximum concentration (Tmax) [4]	bioavailability ([4]; form (II) compared to Form (I))	systemic exposure (AUCo-t) ([4]; form (II) compared to Form (I))	SMILES	affinity for L-type calcium channel [1]	cytochrome P450 3A4 substrate [3]
less than 20 μg/ml	0.05 ×10⁻⁶ cm/s	between three and four times	1 to 3 h				COC(=O)C1=C(C)NC(C)=C(C(=O)OC(C)(C)CN(C)CCC(c2ccccc2)c2ccccc2)C1c1cccc([N+](=O)[O-])c1.Cl (stereo not shown) [Lercanidipine, methyl 1,1,N-trimethyl-N-(3,3-diphenylpropyl)-2-aminoethyl 1,4-dihydro-2,6-dimethyl-4-(3-nitrophenyl)pyridine-3,5-dicarboxylate]	high affinity	substrate for cytochrome P450 3A4 isoenzyme
				shorter time to maximum concentration			COC(=O)C1=C(C)NC(C)=C(C(=O)OC(C)(C)CN(C)CCC(c2ccccc2)c2ccccc2)C1c1cccc([N+](=O)[O-])c1 (stereo not shown) [form (I)]		
				delayed time of maximum concentration	higher bioavailability	slightly higher systemic exposure	COC(=O)C1=C(C)NC(C)=C(C(=O)OC(C)(C)CN(C)CCC(c2ccccc2)c2ccccc2)C1c1cccc([N+](=O)[O-])c1 (stereo not shown) [form (II)]		
